Measurements taken from publication PMC8150775, “Repositioning Azelnidipine as a Dual Inhibitor Targeting CD47/SIRPα and TIGIT/PVR Pathways for Cancer Immuno-Therapy” (Biomolecules, 2021).

Legend:
human PD-1/PD-L1 = target: T1, human PD-1/PD-L1 (Homo sapiens, UniProt Q15116); assay: Blocking assay, PD-1-Fc protein binding to CHOK1-hPD-L1 cells; conditions: 100 μM
T1 construct: host or cells: CHOK1-hPD-L1 cells
From the text: The small molecule inhibitor could not only bind to the target; most importantly, it should interfere with the receptor–ligand interactions. Subsequently, the candidate inhibitors were screened by the blocking assays with the established CD47 and TIGIT over-expressing cell lines. The test was initialed with a preliminary screening of the candidates with a single concentration (Figure 2D). Generally, the SMI blocking efficacy to the CD47/SIRPα interaction was much higher than that of the TIGIT/PVR. […] Therefore, the SMI-F11 and SMI-F17 may exert dual blocking effects in the CD47/SIRPα and TIGIT/PVR pathways. Blocking assays with a concentration gradient of the SMI were further performed to validate the preliminary screening. […] The similar blocking assays with the mouse CD47 and TIGIT over-expressing cells were also performed. […] Considering that most pairs of the immune checkpoints interact with the corresponding ligand in parallel forms, the blocking assays with the PD-1/PD-L1 interaction system was also conducted to test the specificity.
There are three supplemental Figures and one supplemental Table.
Supplemental figure and legend
Figure S1. The blocking efficacy of PD-1/PD-L1 by Azelnidipine. (A) The representative FACS histogram of blocking assay of Azelnidipine (100 μM) with CHOK1-hPD-L1 cells and PD-1-Fc protein (blue histogram). […]

MC38 tumors = assay: MC38 tumor model, alone or combined with radiotherapy, with ex vivo analysis; type: in vivo, C57BL/6 mice
Method: BABL/c mice were subcutaneously (s.c.) injected with 2 × 10^5 CT26 cells on the right back, and C57BL/6 mice were injected with 1 × 10^6 MC38 cells. One week later, tumor-bearing mice were randomized into indicated groups, and intraperitoneal (i.p.) injected with azelnidipine or normal saline every day for two weeks. Tumor volumes were measured every other day by the (a) length, (b) width, and (c) height and calculated as volume (V) = a × b × c/2. For the combinational model of azelnidipine and radiotherapy (RT), MC38 tumor-bearing mice received irradiation (IR) when the tumors reached 80–100 mm^3. The mice received one dose of 20 Gy irradiation at the tumor local site, and followed by the treatment of azelnidipine.
Tumor-bearing mice were sacrificed at the end of the treatment. The tumors were dissected and digested into single cell with an enzyme cocktail of 100 U/mL collagenase IV; and Dnase I. The infiltration of CD8^+ T cells at the tumor site was detected by flow cytometry by staining of anti-mouse CD45, anti-mouse CD3, anti-mouse CD8α or isotype control. The MDSCs at the tumor site were analyzed by staining of anti-mouse CD45, anti-mouse CD11b, anti-mouse Ly6C, and anti-mouse Ly6G. […] The frequency of IFN-γ secreting CD8^+ T cells were counted according to the fluorescence minus one (FMO) control with the isotype control of IFN-γ antibody. […]

CD47 = assay: Flow cytometry of CD47 expression on CT26 cells in vitro; type: cell-based, mouse; conditions: 20 μM, 24 h
Method: Cells in good growth condition were harvested and used to detect the expression of CD47 and PVR. Antibodies anti-human CD47 APC, anti-human PVR PE, anti-mouse-CD47 APC, anti-mouse-PVR APC, and matched isotype controls were purchased from eBioscience, San Diego, CA, USA. The effects of azelnidipine on the expression of CD47 and PVR was determined by incubating CT26 cells with 20 μM of azelnidipine for 24 h, or directly analyzing the tumor cells from tumor tissues of CT26-bearing mice treated with or without azelnidipine.
Figure S3. The effects of Azelnidipine on the expression of CD47 and PVR on CT26 tumor cells. (A and B) CT26 cells were incubated with 20 μM Azelnidipine or vehicle control for 24h, and analyzed the expression of CD47 (A) and PVR (B). The gray shaded histogram represents the isotype, the red line represents the cells treated with vehicle control, and the blue line represents the cells treated with Azelnidipine. (C and D) Tumor cells (CD45-) derived from the tumor tissues of CT26 tumor-bearing mice treated with normal saline (NS) or 5 mg/kg Azelnidipine for twelve days, were analyzed for the expression of CD47 (C) and PVR (D). n.s. means not […]
(1 picture or pasted object on this page, not shown here)

T1 sequence (Q15116 25-167 limits assumed): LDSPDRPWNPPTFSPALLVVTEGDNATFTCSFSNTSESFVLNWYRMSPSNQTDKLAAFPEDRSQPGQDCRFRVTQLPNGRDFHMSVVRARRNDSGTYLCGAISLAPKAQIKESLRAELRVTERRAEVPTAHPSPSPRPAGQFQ

**Q.** Which “blocking of human PD-1/PD-L1 interaction” value (human PD-1/PD-L1) does the source give for `CC1=C(C(=O)OC(C)C)C(c2cccc([N+](=O)[O-])c2)C(C(=O)OC2CN(C(c3ccccc3)c3ccccc3)C2)=C(N)N1` (stereo not shown) [Azelnidipine] here?
**A.** The value was “could not block”.

**Q.** And the “growth of MC38 tumors, combination with IR” value (MC38 tumors; 5 mg/kg i.p. each day combined with 20 Gy local IR)?
**A.** The value was “remarkably suppress tumor growth”.

**Q.** What about the “growth of MC38 tumors” value (MC38 tumors; 2 and 5 mg/kg i.p. each day for 2 weeks, alone) of the same compound?
**A.** The value was “significantly restrict”.

**Q.** And the “expression of CD47 on CT26 cells” value (CD47)?
**A.** Its value is “without suppressing”.
